The source of these data is patent US9963496B2, “Stable glucagon analogues and use for treatment of hypoglycaemia” (Novo Nordisk A/S, priority 2014, dated 2018).

SMILES strings stand for the structures. *1 amine or outer side, *2 acyl side, *3 side chain or, on linkers, in order; H or OH if unused. Where a SMILES comes first, the peptide text is derived from it. Side-chain parts run from the residue outwards. [ ]: non-standard residue; d: D form. The star is where a group is joined. γGlu = O=C(O)[C@H](CCC(=O)[*:2])N[*:1]; Desaminohistidyl = O=C(CCc1c[nH]cn1)*; Aib = CC(C)(N)C(=O)O

This data set in a line: physchem. The following applies: pH 7.5. It counts as physicochemical. From the text: Assay (III): ThT Fibrillation Assay for the Assessment of Physical Stability of Peptide Compositions The purpose of this assay is to assess the physical stability of the glucagon derivatives of the invention in aqueous solutions. Low physical stability of a peptide may lead to amyloid fibril formation, which is observed as well-ordered, thread-like macromolecular structures in the sample, which eventually may lead to gel formation. This has traditionally been measured by visual inspection of the sample. However, that kind of measurement is very cumbersome and depending on the observer. Therefore, the application of a small molecule indicator probe is much more advantageous. Thioflavin T (ThT) is such a probe and has a distinct fluorescence signature when binding to fibrils [Naiki et al. (1989) Anal. Biochem. 177, 244-249; LeVine (1999) Methods. Enzymol. 309, 274-284]. Here, as depicted in FIG. 1, F is the ThT fluorescence at the time t. The constant t0 is the time needed to reach 50% of maximum fluorescence. The two important parameters describing fibril formation are the lag-time calculated by t0−2τ and the apparent rate constant kapp 1/τ. Samples were prepared freshly before each assay. Each sample composition is described in the legends. The pH of the sample was adjusted to the desired value using appropriate amounts of concentrated NaOH and HCl. Thioflavin T was added to the samples from a stock solution in H2O to a final concentration of 1 μM. Sample aliquots of 200 μl (250 μM of the glucagon derivative/analogue in 10 mM HEPES buffer, pH 7.5) were placed in a 96 well microtiter plate (Packard OptiPlate™-96, white polystyrene). Usually, four or eight replica of each sample (corresponding to one test condition) was placed in one column of wells. The plate was sealed with Scotch Pad (Qiagen). Incubation at given temperature, shaking and measurement of the ThT fluorescence emission were done in a Fluoroskan Ascent FL fluorescence platereader (Thermo Labsystems). The plate was incubated 37° C. with orbital shaking adjusted to 960 rpm with an amplitude of 1 mm. Fluorescence measurement was done using excitation through a 444 nm filter and measurement of emission through a 485 nm filter. Each run was initiated by incubating the plate at the assay temperature for 10 min. The plate was measured every 20 minutes for a desired period of time. Between each measurement, the plate was shaken and heated as described. After completion of the ThT assay the four or eight replica of each sample was pooled and centrifuged at 20000 rpm for 30 minutes at 18° C. The supernatant was filtered through a 0.22 μm filter and an aliquot was transferred to a HPLC vial. The concentration of peptide in the initial sample and in the filtered supernatant was determined by reverse phase HPLC using an appropriate standard as reference. The percentage fraction the concentration of the filtered sample constituted of the initial sample concentration was reported as the recovery. The measurement points were saved in Microsoft Excel format for further processing and curve drawing and fitting was performed using GraphPad Prism. The background emission from ThT in the absence of fibrils was negligible. The data points were typically a mean of four or eight samples and shown with standard deviation error bars. Only data obtained in the same experiment (i.e. samples on the same plate) were presented in the same graph ensuring a relative measure of fibrillation between experiments. The data set may be fitted to Eq. (1).
As for `CC(=O)N[C@@H](CCC(=O)N[C@@H](CCC(=O)N[C@@H](CCC(=O)N[C@@H](CCC(=O)NCCCC[C@H](NC(=O)[C@@H](NC(=O)[C@H](Cc1ccccc1)NC(=O)[C@H](CC(=O)O)NC(=O)[C@H](CCC(N)=O)NC(=O)[C@H](C)NC(=O)[C@H](CCCNC(=N)N)NC(=O)[C@H](CCCNC(=N)N)NC(=O)[C@H](CO)NC(=O)[C@H](CCC(=O)O)NC(=O)[C@H](CC(C)C)NC(=O)[C@H](Cc1ccc(O)cc1)NC(=O)[C@H](CCCCN)NC(=O)[C@H](CO)NC(=O)[C@H](Cc1ccc(O)cc1)NC(=O)[C@H](CC(=O)O)NC(=O)[C@H](CO)NC(=O)[C@@H](NC(=O)[C@H](Cc1ccccc1)NC(=O)[C@@H](NC(=O)CNC(=O)[C@H](Cc1c[nH]cn1)NC(=O)[C@H](CO)NC(=O)CCc1c[nH]cn1)[C@@H](C)O)[C@@H](C)O)C(C)C)C(=O)N[C@@H](Cc1c[nH]c2ccccc12)C(=O)N[C@@H](CC(C)C)C(=O)N[C@@H](CC(C)C)C(=O)N[C@@H](CO)C(=O)N[C@H](C(=O)O)[C@@H](C)O)C(=O)O)C(=O)O)C(=O)O)C(=O)O` [Example 5, N^ϵ24-[(4S)-4-[[(4S)-4-[[(4S)-4-[[(4S)-4-acetamido-4-carboxybutanoyl]amino]-4-carboxybutanoyl]amino]-4-carboxybutanoyl]amino]-4-carboxybutanoyl]-[Imp1, His3, Glu15, Lys24, Leu27, Ser28]-Glucagon] (Desaminohistidyl-SHGTFTSDYSKYLESRRAQDFVK([γGlu-γGlu-γGlu-γGlu-Ac])WLLST-OH), the recovery at 250 μM is 100%.
`CC(=O)N[C@@H](CCC(=O)N[C@@H](CCC(=O)N[C@@H](CCC(=O)N[C@@H](CCC(=O)NCC(=O)NCCCC[C@H](NC(=O)[C@@H](NC(=O)[C@H](Cc1ccccc1)NC(=O)[C@H](CCC(=O)O)NC(=O)[C@H](CCC(N)=O)NC(=O)[C@H](C)NC(=O)[C@H](CCCNC(=N)N)NC(=O)[C@H](CCCNC(=N)N)NC(=O)[C@H](CO)NC(=O)[C@H](CCC(=O)O)NC(=O)[C@H](CC(C)C)NC(=O)[C@H](Cc1ccc(O)cc1)NC(=O)[C@H](CCCCN)NC(=O)[C@H](CO)NC(=O)[C@H](Cc1ccc(O)cc1)NC(=O)[C@H](CC(=O)O)NC(=O)[C@H](CO)NC(=O)[C@@H](NC(=O)[C@H](Cc1ccccc1)NC(=O)[C@@H](NC(=O)CNC(=O)[C@H](Cc1c[nH]cn1)NC(=O)[C@H](CO)NC(=O)CCc1c[nH]cn1)[C@@H](C)O)[C@@H](C)O)C(C)C)C(=O)N[C@@H](Cc1c[nH]c2ccccc12)C(=O)N[C@@H](CC(C)C)C(=O)N[C@@H](CC(C)C)C(=O)N[C@@H](CO)C(=O)N[C@H](C(=O)O)[C@@H](C)O)C(=O)O)C(=O)O)C(=O)O)C(=O)O` [Example 17, N^ϵ24-[2-[[(4S)-4-[[(4S)-4-[[(4S)-4-[[(4S)-4-acetamido-4-carboxybutanoyl]amino]-4-carboxybutanoyl]amino]-4-carboxybutanoyl]amino]-4-carboxybutanoyl]amino]acetyl]-[Imp1, His3, Glu15, Glu21, Lys24, Leu27, Ser28]-Glucagon] (Desaminohistidyl-SHGTFTSDYSKYLESRRAQEFVK([Gly-γGlu-γGlu-γGlu-γGlu-Ac])WLLST-OH) showed a recovery at 250 μM of 100%.
`CC(=O)N[C@@H](CCC(=O)N[C@@H](CCC(=O)N[C@@H](CCC(=O)N[C@@H](CCC(=O)NCCCC[C@H](NC(=O)[C@H](CCC(=O)O)NC(=O)[C@H](CC(C)C)NC(=O)[C@H](Cc1ccc(O)cc1)NC(=O)[C@H](CCCCN)NC(=O)[C@H](CO)NC(=O)[C@H](Cc1ccc(O)cc1)NC(=O)[C@H](CC(=O)O)NC(=O)[C@H](CO)NC(=O)[C@@H](NC(=O)[C@H](Cc1ccccc1)NC(=O)[C@@H](NC(=O)CNC(=O)[C@H](Cc1c[nH]cn1)NC(=O)[C@H](CO)NC(=O)CCc1c[nH]cn1)[C@@H](C)O)[C@@H](C)O)C(=O)N[C@@H](CCCNC(=N)N)C(=O)N[C@@H](CCCNC(=N)N)C(=O)N[C@@H](C)C(=O)N[C@@H](CCC(N)=O)C(=O)N[C@@H](CCC(=O)O)C(=O)N[C@@H](Cc1ccccc1)C(=O)N[C@H](C(=O)N[C@@H](CCC(N)=O)C(=O)N[C@@H](Cc1c[nH]c2ccccc12)C(=O)N[C@@H](CC(C)C)C(=O)N[C@@H](CC(C)C)C(=O)N[C@@H](CO)C(=O)N[C@H](C(=O)O)[C@@H](C)O)C(C)C)C(=O)O)C(=O)O)C(=O)O)C(=O)O` [Example 11, N^ϵ16-[(4S)-4-[[(4S)-4-[[(4S)-4-[[(4S)-4-acetamido-4-carboxybutanoyl]amino]-4-carboxybutanoyl]amino]-4-carboxybutanoyl]amino]-4-carboxybutanoyl]-[Imp1, His3, Glu15, Lys16, Glu21, Leu27, Ser28]-Glucagon] (Desaminohistidyl-SHGTFTSDYSKYLEK([γGlu-γGlu-γGlu-γGlu-Ac])RRAQEFVQWLLST-OH) had a recovery at 250 μM of 98%.
Turning to `CC(=O)N[C@@H](CCC(=O)N[C@@H](CCC(=O)N[C@@H](CCC(=O)N[C@@H](CCC(=O)NCCCC[C@H](NC(=O)[C@@H](NC(=O)[C@H](Cc1ccccc1)NC(=O)[C@H](CC(=O)O)NC(=O)[C@H](CCC(N)=O)NC(=O)[C@H](C)NC(=O)[C@H](CCCNC(=N)N)NC(=O)[C@H](CCCNC(=N)N)NC(=O)[C@H](CO)NC(=O)[C@H](CCC(=O)O)NC(=O)[C@H](CC(C)C)NC(=O)[C@H](Cc1ccc(O)cc1)NC(=O)[C@H](CCCCN)NC(=O)[C@H](CO)NC(=O)[C@H](CC(C)C)NC(=O)[C@H](CC(=O)O)NC(=O)[C@H](CO)NC(=O)[C@@H](NC(=O)[C@H](Cc1ccccc1)NC(=O)[C@@H](NC(=O)CNC(=O)[C@H](Cc1c[nH]cn1)NC(=O)C(C)(C)NC(=O)CCc1c[nH]cn1)[C@@H](C)O)[C@@H](C)O)C(C)C)C(=O)N[C@@H](Cc1c[nH]c2ccccc12)C(=O)N[C@@H](CC(C)C)C(=O)N[C@@H](CC(C)C)C(=O)N[C@@H](CO)C(=O)N[C@H](C(=O)O)[C@@H](C)O)C(=O)O)C(=O)O)C(=O)O)C(=O)O` [Example 3, N^ϵ24-[(4S)-4-[[(4S)-4-[[(4S)-4-[[(4S)-4-acetamido-4-carboxybutanoyl]amino]-4-carboxybutanoyl]amino]-4-carboxybutanoyl]amino]-4-carboxybutanoyl]-[Imp1, Aib2, His3, Leu10, Glu15, Lys24, Leu27, Ser28]-Glucagon] (Desaminohistidyl-[Aib]HGTFTSDLSKYLESRRAQDFVK([γGlu-γGlu-γGlu-γGlu-Ac])WLLST-OH), the recovery at 250 μM stood at 100%.
